Results as given in doi:10.1101/2021.09.28.462164v1 (biorxiv, 2021).
Numbering of substitutions follows the chain as printed.

How the values were obtained:
Type in all cases: cell-based
Settings in all cases: 30 C; extract in 50 mM Tris-HCl pH 7.5; described as competitive inhibitor
[1] = molecular target: T1, HsHK2 (Homo sapiens, UniProt P52789)
T1 sequence (P52789 1-917): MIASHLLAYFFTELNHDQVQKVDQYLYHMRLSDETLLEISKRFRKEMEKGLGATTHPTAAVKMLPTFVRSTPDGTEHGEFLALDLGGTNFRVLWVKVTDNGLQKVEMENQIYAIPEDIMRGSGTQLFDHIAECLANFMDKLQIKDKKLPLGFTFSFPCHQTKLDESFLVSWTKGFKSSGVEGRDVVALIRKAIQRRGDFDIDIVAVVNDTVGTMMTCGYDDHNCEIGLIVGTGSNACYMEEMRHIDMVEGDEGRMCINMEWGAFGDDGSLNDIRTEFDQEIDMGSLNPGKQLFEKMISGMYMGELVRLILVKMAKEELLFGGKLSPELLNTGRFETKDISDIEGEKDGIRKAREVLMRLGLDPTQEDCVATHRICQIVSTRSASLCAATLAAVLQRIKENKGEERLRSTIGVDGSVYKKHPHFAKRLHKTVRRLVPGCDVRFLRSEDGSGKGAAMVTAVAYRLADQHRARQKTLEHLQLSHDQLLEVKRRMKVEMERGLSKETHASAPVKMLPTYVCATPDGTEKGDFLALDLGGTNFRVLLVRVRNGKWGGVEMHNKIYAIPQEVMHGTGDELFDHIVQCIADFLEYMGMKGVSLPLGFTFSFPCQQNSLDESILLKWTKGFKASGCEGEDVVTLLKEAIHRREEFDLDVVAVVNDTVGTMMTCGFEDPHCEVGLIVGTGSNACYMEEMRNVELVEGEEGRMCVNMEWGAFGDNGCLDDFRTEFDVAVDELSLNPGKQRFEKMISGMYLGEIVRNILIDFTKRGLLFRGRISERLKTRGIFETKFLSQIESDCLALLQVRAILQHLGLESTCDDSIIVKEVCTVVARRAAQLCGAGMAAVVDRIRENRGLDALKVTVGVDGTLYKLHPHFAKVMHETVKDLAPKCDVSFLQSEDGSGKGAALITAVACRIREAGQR

[2] = molecular target: T2, HsHK1 (Homo sapiens, UniProt P19367)
T2 sequence (P19367 1-917): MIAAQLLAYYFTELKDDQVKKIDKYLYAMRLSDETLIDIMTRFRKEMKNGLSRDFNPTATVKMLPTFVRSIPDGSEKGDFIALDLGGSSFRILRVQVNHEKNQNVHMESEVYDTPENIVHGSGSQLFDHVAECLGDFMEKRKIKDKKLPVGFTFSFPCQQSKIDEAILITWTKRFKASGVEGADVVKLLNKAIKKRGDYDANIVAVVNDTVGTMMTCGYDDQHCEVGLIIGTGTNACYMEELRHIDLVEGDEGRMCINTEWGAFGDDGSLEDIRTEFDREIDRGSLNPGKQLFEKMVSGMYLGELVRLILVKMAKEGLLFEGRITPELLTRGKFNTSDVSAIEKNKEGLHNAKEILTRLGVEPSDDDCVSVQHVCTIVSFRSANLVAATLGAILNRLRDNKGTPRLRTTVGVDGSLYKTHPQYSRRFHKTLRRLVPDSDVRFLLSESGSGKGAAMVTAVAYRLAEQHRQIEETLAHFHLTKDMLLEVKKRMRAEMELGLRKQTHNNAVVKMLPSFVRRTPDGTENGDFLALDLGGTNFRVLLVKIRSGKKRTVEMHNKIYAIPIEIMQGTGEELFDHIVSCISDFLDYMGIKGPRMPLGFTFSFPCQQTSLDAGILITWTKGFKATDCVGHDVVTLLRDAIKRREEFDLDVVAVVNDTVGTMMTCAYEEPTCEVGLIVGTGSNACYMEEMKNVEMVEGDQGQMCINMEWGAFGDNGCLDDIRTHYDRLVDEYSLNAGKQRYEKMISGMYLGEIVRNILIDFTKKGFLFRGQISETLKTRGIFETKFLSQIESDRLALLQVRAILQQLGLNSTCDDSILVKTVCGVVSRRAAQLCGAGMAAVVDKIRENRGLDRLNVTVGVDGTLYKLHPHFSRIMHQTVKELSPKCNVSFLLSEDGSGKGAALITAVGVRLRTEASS

[3] = molecular target: T3, HsHK1 (Homo sapiens, UniProt P19367, G679A)
T3 sequence (P19367 1-917 G679A): T2 sequence (P19367 1-917) with G679A

[4] = molecular target: T4, HsHK2 (Homo sapiens, UniProt P52789, L776F)
T4 sequence (P52789 1-917 L776F): T1 sequence (P52789 1-917) with L776F

- IC50 [1]: 87 ± 21 µM
- IC50 [2]: 38 ± 15 µM
- IC50 [3]: 320 ± 100 µM
- IC50 [4]: 260 ± 200 µM
SMILES: O=P(O)(O)OC[C@H]1OC(O)[C@H](O)[C@@H](O)[C@@H]1O (stereo partly shown) [glucose-6-phosphate]
